From patent US20080175927A1, “METHOD FOR PREVENTING PLANT DISEASES” (priority 2005, published 2008)
Marks after values point to notes of the source that are not given here.

Experiments:
[1] = tested on: damping-off of cucumber; experiment: Paper disk method, growth inhibition by TLC-purified berberine and derivatives; type: cell-based, Pythium ultimum; parameters: key: ++: strong inhibition; +: moderate inhibition; −: no inhibition; details: purified from TLC
Description: (§1) To confirm antimicrobial activity of berberine and derivative thereof, we collected TLC bands of berberine and derivative thereof and investigated antimicrobial activity of berberine and derivative thereof against known plant pathogens using paper disk method (Ericsson, H., Hogman, C & Wickman. K. 1954, Scandinavian Journal of Clinical Laboratory Investigation 6, Suppl. 11:21-26). […] Therefore, the result of the aforementioned HPLC analysis, ^1H NMR analysis and antimicrobial activity, the active antimicrobial compound exisisting in the extract of Coptis Rhizoma, Phellodendron genus plant, Sanguniaria canadensis, and Chelidonuum majus var. asiaticum was identified as berberine or derivatives thereof.

[2] = tested on: glomellera cingurata; experiment: as above; type: cell-based; parameters: key: ++: strong inhibition; +: moderate inhibition; −: no inhibition; details: purified from TLC
Description: as §1

[3] = tested on: gray mold rot of strawberry; experiment: as above; type: cell-based, Botrytis cinerea; parameters: key: ++: strong inhibition; +: moderate inhibition; −: no inhibition; details: purified from TLC
Description: as §1

[4] = tested on: Sphaerotheca aphanis var. aphanis; experiment: Preventive test against strawberry powdery mildew, disease incidence rate; type: in vivo; details: for PR (prevention rate): 7 days after treatment; for DIR B (disease incident rate 7 days after treatment), I: replicate I; for DIR B (disease incident rate 7 days after treatment), II: replicate II; for DIR B (disease incident rate 7 days after treatment), III: replicate III
Description: To measure prevention effect against powdery mildew of extract of Coptis Rhizoma, Phellodendron amurense, Sanguniaria canadensis and Chelidonuum majus var. asiaticum and berberine and its derivative, we performed a preventive test agaist strawberry powdery mildew resulted from infection of Sphaerotheca aphanis var. aphanis using the standard extract obtained by Example 1 or berberine and derivative thereof. The above extract (30 mL) obtained from 10 g of fresh plant materials was dissolved in 200 μg/ml of Tween 20 solution. Final concentration of berberine and derivatives thereof was 400 μg/ml. Negative control was prepared by adding 250 μg/ml of Tween 20 in distilled water. As a positive control reagent, 30% solution of Rifzol wettable powder (Rifzol W P, Aventis Corp Science, Korea) is used and the Rifzol solution was diluted 1:4000 and treated with amount of 75 μg/ml which is common packing concentration.
In house condition of sandy-loamy soil, disease incidence rate was determined 7 days after treatment of the above mentioned reagents compared to one of non-treatment control and the test was repeated 3 times by randomized Block Design.
Before treatment of the reagents, the disease incidence rate of strawberry powdery mildew was 34.1%. The disease incidence rate is defined as percentage of disease developed plants among total investigated plants.
We investigated preventive effects of standard forms of berberine chloride, berberine iodide and berberine bromide and the standard extract obtained by Example 1 against strawberry powdery mildew at various concentrations according to the method of Example 4. […] When the freeze-dried standard extract obtained by Example 1 was used at concentration of at least 1 μg/ml or preferably 10 μg/ml, it prevented strawberry powdery mildew resulted from an infection of Sphaerotheca aphanis var. aphanis. From the above effect, the present inventors confirmed that the standard extract could substitute for synthetic chemical pesticides.

[5] = extracts 30 mL from 10 g plant, berberine salts 400 μg/ml, Rifzol 75 μg/ml
[6] = mean of I-III, extracts 30 mL from 10 g plant, berberine salts 400 μg/ml, Rifzol 75 μg/ml, negative control 19.0

Row | Structure (SMILES) | Growth inhibition, damping-off of cucumber [1] | Growth inhibition, glomellera cingurata [2] | Growth inhibition, gray mold rot of strawberry [3] | PR (prevention rate) ([4]; 1 μg/ml) [%] | DIR B (disease incident rate 7 days after treatment), MV (mean value) ([4]; 1 μg/ml, control 35.3) [%] | DIR B (disease incident rate 7 days after treatment), I ([4]; 1 μg/ml) [%] | DIR B (disease incident rate 7 days after treatment), II ([4]; 1 μg/ml) [%] | DIR B (disease incident rate 7 days after treatment), III ([4]; 1 μg/ml) [%] | PR (prevention rate) ([4]; 10 μg/ml) [%] | DIR B (disease incident rate 7 days after treatment), MV (mean value) ([4]; 10 μg/ml, control 35.3) [%] | DIR B (disease incident rate 7 days after treatment), I ([4]; 10 μg/ml) [%] | DIR B (disease incident rate 7 days after treatment), II ([4]; 10 μg/ml) [%] | DIR B (disease incident rate 7 days after treatment), III ([4]; 10 μg/ml) [%] | PR (prevention rate) ([4]; 100 μg/ml) [%] | DIR B (disease incident rate 7 days after treatment), MV (mean value) ([4]; 100 μg/ml, control 35.3) [%] | DIR B (disease incident rate 7 days after treatment), I ([4]; 100 μg/ml) [%] | DIR B (disease incident rate 7 days after treatment), II ([4]; 100 μg/ml) [%] | DIR B (disease incident rate 7 days after treatment), III ([4]; 100 μg/ml) [%] | PR (prevention rate) ([4]; 300 μg/ml) [%] | DIR B (disease incident rate 7 days after treatment), MV (mean value) ([4]; 300 μg/ml, control 35.3) [%] | also measured
1 | COc1ccc2cc3[n+](cc2c1OC)CCc1cc2c(cc1-3)OCO2 [berberine chloride] | ++ | ++ | + | 12.2 | 31.0 | 30.2 | 30.8 | 32.1 | 38.2 | 21.8 | 23.4 | 22.1 | 19.9 | 73.7 | 9.3 | 8.2 | 7.7 | 12.1 | 77.3 | 8.0 | DIR B (disease incident rate 7 days after treatment), I ([4]; 300 μg/ml): 5.2%; DIR B (disease incident rate 7 days after treatment), II ([4]; 300 μg/ml): 8.5%; DIR B (disease incident rate 7 days after treatment), III ([4]; 300 μg/ml): 10.3%; PR (prevention rate) ([4]; 1000 μg/ml): 84.7%; DIR B (disease incident rate 7 days after treatment), MV (mean value) ([4]; 1000 μg/ml, control 35.3): 5.4%; DIR B (disease incident rate 7 days after treatment), I ([4]; 1000 μg/ml): 3.4%; DIR B (disease incident rate 7 days after treatment), II ([4]; 1000 μg/ml): 8.7%; DIR B (disease incident rate 7 days after treatment), III ([4]; 1000 μg/ml): 4.2%; PR (prevention rate) [4, 5]: 69.5^c %; DIR B (disease incident rate 7 days after treatment), MV (mean value) [4, 6]: 5.8%; DIR B (disease incident rate 7 days after treatment), I [4, 5]: 5.9%; DIR B (disease incident rate 7 days after treatment), II [4, 5]: 5.1%; DIR B (disease incident rate 7 days after treatment), III [4, 5]: 5.1%
2 | COc1ccc2cc3[n+](cc2c1OC)CCc1cc2c(cc1-3)OCO2.[Br-] [berberine bromine, berberine bromide] | + | + | + | 12.5 | 30.9 | 29.6 | 27.6 | 35.4 | 47.3 | 18.6 | 13.5 | 17.6 | 24.8 | 61.5 | 13.6 | 13.2 | 11.7 | 15.8 | 71.7 | 10.0 | DIR B (disease incident rate 7 days after treatment), I ([4]; 300 μg/ml): 8.9%; DIR B (disease incident rate 7 days after treatment), II ([4]; 300 μg/ml): 12.9%; DIR B (disease incident rate 7 days after treatment), III ([4]; 300 μg/ml): 8.3%; PR (prevention rate) ([4]; 1000 μg/ml): 78.8%; DIR B (disease incident rate 7 days after treatment), MV (mean value) ([4]; 1000 μg/ml, control 35.3): 7.5%; DIR B (disease incident rate 7 days after treatment), I ([4]; 1000 μg/ml): 5.9%; DIR B (disease incident rate 7 days after treatment), II ([4]; 1000 μg/ml): 9.4%; DIR B (disease incident rate 7 days after treatment), III ([4]; 1000 μg/ml): 7.2%; PR (prevention rate) [4, 5]: 66.8%; DIR B (disease incident rate 7 days after treatment), MV (mean value) [4, 6]: 6.3%; DIR B (disease incident rate 7 days after treatment), I [4, 5]: 5.2%; DIR B (disease incident rate 7 days after treatment), II [4, 5]: 6.1%; DIR B (disease incident rate 7 days after treatment), III [4, 5]: 6.1%
3 | COc1ccc2cc3[n+](cc2c1OC)CCc1cc2c(cc1-3)OCO2.[I-] [berberine iodide] | + | + | + | 9.9 | 31.8 | 30.2 | 29.5 | 35.8 | 35.4 | 22.8 | 25.8 | 23.1 | 19.6 | 73.1 | 9.5 | 10.2 | 8.9 | 9.3 | 78.8 | 7.5 | DIR B (disease incident rate 7 days after treatment), I ([4]; 300 μg/ml): 6.2%; DIR B (disease incident rate 7 days after treatment), II ([4]; 300 μg/ml): 7.9%; DIR B (disease incident rate 7 days after treatment), III ([4]; 300 μg/ml): 8.4%; PR (prevention rate) ([4]; 1000 μg/ml): 82.2%; DIR B (disease incident rate 7 days after treatment), MV (mean value) ([4]; 1000 μg/ml, control 35.3): 6.3%; DIR B (disease incident rate 7 days after treatment), I ([4]; 1000 μg/ml): 4.3%; DIR B (disease incident rate 7 days after treatment), II ([4]; 1000 μg/ml): 9.3%; DIR B (disease incident rate 7 days after treatment), III ([4]; 1000 μg/ml): 5.2%; PR (prevention rate) [4, 5]: 63.2%; DIR B (disease incident rate 7 days after treatment), MV (mean value) [4, 6]: 7.0%; DIR B (disease incident rate 7 days after treatment), I [4, 5]: 7.1%; DIR B (disease incident rate 7 days after treatment), II [4, 5]: 6.6%; DIR B (disease incident rate 7 days after treatment), III [4, 5]: 6.6%
